Measured values from patent publication US20040191311A1, “Use of methyltestosterone as a drug for treatment of human papilloma virus infections” (priority 2002, published 2004).
Entries after “also recorded” stand apart in the source; their conditions may differ.

Columns and labels:
[1] = test system: verruca planae caused by HPV; experiment: Clinical treatment of verruca planae patients with methyltestosterone tablets; format: in vivo, human; conditions: for outcome at follow-up visit: 8 weeks later
[2] = test system: condyloma acuminatum caused by HPV; experiment: Clinical treatment of condyloma acuminatum patients with methyltestosterone tablets after operation, laser or freezing; format: in vivo, human; conditions: for relapse of lesions: in 6 months
Experimental: The study protocol using methyltestosterone as a treatment for verruca planae and condyloma acuminatum caused by HPV includes:
Some of the patients were the relapsed ones after the treatment by transferor, interferon, and interleukins.
Methyltestosterone is a tablet, manufactured by Southwest Pharmaceutical Company and the Second Pharmaceutical Company of Chengdu, China. The dosage was 5 mg/tablet.
Methyltestosterone was administered orally, 1 tablet/time, three times/day, and 5 days consecutively, followed by 1 tablet/time, two times/day, for additional 5-10 days consecutively.
One of the following would be considered as cure: A) there were no new vegetations at or around the lesion for at least six months after administration of methyltestosterone for 10-15 days following treatment with physical, chemical, and operational therapies. B) the vegetations reappeared in two months after operations and were positive for the acetowhitening test, but regressed for at least 6 months after administration of methyltestosterone for 10-15 days.

[3] = of 96 cases with facial verruca planae
[4] = out of 7 cases with hand and neck verruca planae

CC12CCC(=O)C=C1CCC1C2CCC2(C)C1CCC2(C)O (stereo not drawn) [methyltestosterone]
time to cure ([1]; Case 1: facial verruca planae 2 years, 1 tablet twice daily for 3 days): 2 weeks
time until all lesions regressed ([1]; Case 2: facial verruca planae 1 year, 1 tablet twice daily for 3 days): 4 weeks
time until all lesions regressed ([1]; Case 3: facial verruca planae 4 years, 1 tablet twice daily for 3 days): 4 weeks
lesions regressed ([1]; Case 4: facial verruca planae 13 years, 1 tablet twice daily for 5 days, in 6 weeks): 90%
time until lesions on the face regressed ([1]; Case 5: hand and neck verruca planae 10 years, 1 tablet twice daily for 10 days): 2 months
time to cure ([1]; Case 6: facial verruca planae 3 months, 1 tablet once daily for 5 days plus Vitamin B2, Vitamin B6 and brimstone lotion): 4 weeks
outcome at follow-up visit ([1]; Case 7: facial verruca planae, 1 tablet twice daily for 5 days): cured
outcome at follow-up visit ([1]; Case 8: facial verruca planae one year, 1 tablet once daily for 5 days): cured
outcome of lesions ([1]; Case 9: facial verruca planae relapsed after laser, 1 tablet three times daily for 5 days): regressed mostly
time until papules regressed completely ([1]; Case 10: flat papules on forehead and blepharons, 1 tablet three times daily for 4 days): 3 weeks
non-responsive rate ([1]; facial verruca planae, 96 cases): 2%
cure rate ([1]; facial verruca planae, 96 cases, 5 mg tablet hypoglossally, two or three times/day, 3-5 days, cure = all facial exanthems regressed): 88.5%
effective rate ([1]; facial verruca planae, 96 cases, effective = 70% of exanthems disappeared): 9.4%
effective rate ([1]; hand and neck verruca planae, 7 cases): 86%
cases cured [1, 3]: 85 cases
cases effective [1, 3]: 9 cases
cases non-responsive to the medication [1, 3]: 2 cases
cases cured [1, 4]: 1 cases
cases regressed after 5 weeks following the treatment [1, 4]: 3 cases
cases remaining non-responsive [1, 4]: 1 cases
relapse of condyloma acuminatum ([2]; 61 patients, methyltestosterone 10-15 days following operations, follow-up 6 months to 1 year): None of the patients relapsed; also recorded: no relapse case; also recorded: no relapses occurred
relapse of lesions ([2]; Case 11: penis, laser, then 1 tablet three times daily 5 days and twice daily 5 days): did not relapse
relapse of lesions ([2]; Case 12: anus, CO2 laser, then 1 tablet three times daily 5 days and twice daily 10 days): did not relapse
new vegetations ([2]; Case 13: vulva and anus, CO2 laser, then 1 tablet three times daily 5 days and twice daily 5 days, in 4 weeks): no new vegetations appearing
relapse ([2]; Case 14: anus, CO2 laser, then 1 tablet twice daily for 10 days, in a year): No relapse occurred
outcome of wound and vegetations ([2]; Case 15: prepuce, CO2 laser, then 1 tablet three times daily for 10 days, wound healed in 4 weeks): no scars left nor new vegetations growing
time until wound healed with negative acetowhitening test ([2]; Case 16: after the methyltestosterone treatment): 6 weeks
relapse ([2]; Case 16: relapsed after freezing and interferon, CO2 laser, then 1 tablet three times daily 5 days and twice daily 10 days, in one year): no relapse occurred
evaluation by Chinese Ministry of Health and WHO criteria for condyloma acuminatum ([2]; all condyloma acuminatum cases): all cases are considered as cure
outcome of the two cases relapsed after operation and cytokine (interleukin II) treatment ([2]; two relapsed cases, then methyltestosterone treatment): cured; also recorded: healed the lesions
